The text below walks through data of patent US11596611B2, “Hepatitis B antiviral agents” (ENANTA PHARMACEUTICALS, INC., priority 2017, dated 2023).

A word on the EC50: it is the midpoint of the concentration-response curve.

Some results are limits rather than exact numbers.

This experiment concerns HBV. The experiment is described as follows: HepAD38 antiviral assay: reduction of viral product accumulation (virion DNA by qPCR, HBsAg or HBeAg by ELISA). Format: cell-based, hepatitis B virus. Particulars: Hepatitis B virus, 120 h; HepAD38 cells, five days after compound addition; 50% reduction of viral product vs no drug controls; read-out: HepAD38 EC50. How it is done:
Methods: HepAD38 cells are maintained as previously reported (Ladner et al, Antimicrob. Agents Chemother. 1997, […], 1715). Briefly, cells are passaged upon attaining confluency in DMEM/F12 media in the presence of 10% FBS, Penn/Strep, 250 μg/mL G418, and 1 ug/ml tetracycline. Novel compounds are screened by first washing cells three times with PBS to remove tetracycline, and plating in 96 well plates at 35,000 cells/well. Compounds dissolved in DMSO are then diluted 1:200 into wells containing cells. Five days after compound addition, material is harvested for analysis. For an extended 8 days analysis, cells are plated and treated as described above, but media and compound are refreshed on d2 and d5 post initial treatment.
On harvest day, virion DNA is obtained by lysing with Sidestep Lysis and Stabilization Buffer and then quantified via quantitative real time PCR. Commercially available ELISA kits are used to quantitate the viral proteins HBsAg (Alpco) or HbeAg (US Biological) by following the manufacturer's recommended protocol after diluting samples to match the linear range of their respective assays.
Background: In qPCR the cycle at which signal appears reflects the starting amount.
As to `O=C(Nc1ccc(F)c(F)c1)c1ccc(Cl)c(S(=O)(=O)[C@H]2CC3CCC(C2)[C@]3(O)CN2CCOC2=O)c1` [Example 306], the EC50 was less than 104 nM.

As to `O=C(Nc1ccc(F)c(F)c1)c1ccc(Cl)c(S(=O)(=O)C2CO[C@@H]3C(O)CO[C@H]23)c1` (stereo partly drawn) [Example 201], the EC50 is greater than 200 nM.

As to `O=C(Nc1ccc(F)c(F)c1)c1ccc(Cl)c(S(=O)(=O)CC2CCC3(CC2)OCCO3)c1` [Example 216], the EC50 is 100 to 200 nM.

`C[C@]1(O)C2CCC1C[C@@H](S(=O)(=O)c1cc(C(=O)Nc3ccc(F)c(F)c3)c(-c3ccccc3)cc1Cl)C2` [Example 101]: the EC50 was greater than 200 nM.

Turning to `O=C(Nc1cc(F)c(F)c(F)c1)c1ccc(Cl)c(S(=O)(=O)[C@H]2CC3CCC(C2)[C@]3(O)CC(=O)N2CC3(COC3)C2)c1` [Example 94], the EC50 is less than 104 nM.

As to `O=C(Nc1ccc(F)c(F)c1)c1ccc(Cl)c(S(=O)(=O)[C@H]2C[C@@H](CO)C2)c1` [Example 252b], the EC50 is greater than 200 nM.

Regarding `CC(C)([C@H]1CC[C@@H](O)CC1)S(=O)(=O)c1cc(C(=O)Nc2ccc(F)c(F)c2)ccc1Cl` [Example 235], the EC50 is greater than 200 nM.

`COC(=O)[C@H]1C[C@H](S(=O)(=O)c2cc(C(=O)Nc3ccc(F)c(F)c3)ccc2Cl)C1` [Example 250a]: the EC50 was greater than 200 nM.

As to `O=C(Nc1cc(F)c(F)c(F)c1)c1ccc(Cl)c(S(=O)(=O)[C@@H]2CC3CC[C@@H](C2)[C@@]3(O)CNC(=O)[C@]2(O)CCC[C@H]2O)c1` (relative stereo) [Example 59], the EC50 fell in the range of 100 to 200 nM.

For `O=C(Nc1cc(F)c(F)c(F)c1)c1ccc(Cl)c(S(=O)(=O)[C@H]2CC3CCC(C2)[C@]3(O)COCC(O)CO)c1` (stereo partly drawn) [Example 63], the EC50 is less than 104 nM.

Consider `O=C(Nc1ccc(F)c(F)c1)c1ccc(Cl)c(S(=O)(=O)[C@@H]2CC3CC[C@@H](C2)[C@@]3(O)[C@H](O)c2cc(F)ccn2)c1` [Example 299], for which the 50% effective concentration (EC50) is less than 104 nM.

Take `C[C@@H](CO)NC(=O)CC1(O)CC(S(=O)(=O)c2cc(C(=O)Nc3ccc(F)c(F)c3)ccc2Cl)C1` (stereo partly drawn) [Example 247]: the EC50 was greater than 200 nM.

Turning to `O=C(O)CC1(O)CC(S(=O)(=O)c2cc(C(=O)Nc3ccc(F)c(F)c3)ccc2Cl)C1` (stereo not drawn) [Example 243], the EC50 is greater than 200 nM.

For `O=C(Nc1ccc(F)c(F)c1)c1ccc(Cl)c(S(=O)(=O)[C@H]2CC3CC[C@@H](C2)[C@@]3(O)C(O)CN2CCOC2=O)c1` (stereo partly drawn) [Example 312], the EC50 was greater than 200 nM.

As to `O=C(Nc1ccc(F)c(F)c1)c1ccc(Cl)c(S(=O)(=O)[C@H]2CC3CCC(C2)[C@]3(O)CO[C@@H]2O[C@H](C(=O)O)[C@@H](O)[C@H](O)[C@H]2O)c1` [Example 330], the EC50 was greater than 200 nM.

For the compound `O=C(Nc1ccc(F)c(F)c1)c1ccc(Cl)c(S(=O)(=O)[C@H]2CC3CCC(C2)[C@]3(O)[C@@H](O)c2ccc(F)cn2)c1` (single isomer, unassigned) [Example 291a], the EC50 is less than 104 nM.

As for `COC(=O)N[C@H](C)C(=O)NC[C@]1(O)C2CCC1C[C@@H](S(=O)(=O)c1cc(C(=O)Nc3cc(F)c(F)c(F)c3)ccc1Cl)C2` [Example 86], the EC50 is less than 104 nM.

Consider `CC1(C)O[C@H]2[C@H](CO[C@@H]2C(=O)NC[C@@]2(O)C3CC[C@H]2C[C@H](S(=O)(=O)c2cc(C(=O)Nc4cc(F)c(F)c(F)c4)ccc2Cl)C3)O1` [Example 28], for which the 50% effective concentration (EC50) was less than 104 nM.

Take `O=C(Nc1cc(F)c(F)c(F)c1)c1ccc(Cl)c(S(=O)(=O)[C@H]2CC3CCC(C2)[C@]3(O)[C@H](O)[C@@H](O)CO)c1` [Example 42]: the EC50 is less than 104 nM.

As to `O=C(Nc1ccc(F)c(F)c1)c1ccc(Cl)c(S(=O)(=O)[C@H]2CC3CCC(C2)[C@]3(O)CNC(=O)C2CC2)c1` [Example 158], the EC50 was less than 104 nM.

Take `O=C(Nc1ccc(F)c(F)c1)c1ccc(Cl)c(S(=O)(=O)[C@H]2CC3CCC(C2)[C@]3(O)C(O)C(O)c2cccnc2)c1` (stereo partly drawn) [Example 321]: the EC50 was less than 104 nM.

As for `COC(=O)C[C@]1(O)C2CCC1C[C@@H](S(=O)(=O)c1cc(C(=O)Nc3cc(F)c(F)c(F)c3)ccc1Cl)C2` [Example 32], the EC50 is greater than 200 nM.

Regarding `CC(C)N(C[C@]1(O)C2CCC1C[C@@H](S(=O)(=O)c1cc(C(=O)Nc3ccc(F)c(F)c3)ccc1Cl)C2)C(C)C` [Example 342], the concentration for a half-maximal effect (EC50) was less than 104 nM.

`O=C(Nc1ccc(F)c(F)c1)c1ccc(Cl)c(S(=O)(=O)[C@@H]2CC3CC[C@@H](C2)[C@@]3(O)C(O)c2ccnc(Br)c2F)c1` (stereo partly drawn) [Example 298]: the EC50 was less than 104 nM.

For `O=C(Nc1ccc(F)c(F)c1)c1ccc(Cl)c(S(=O)(=O)[C@H]2CC3CC[C@@H](C2)[C@@]3(O)C(O)Cn2cccn2)c1` (stereo partly drawn) [Example 310], the EC50 is greater than 200 nM.

In the case of `C[C@@H](O)COCC1(O)CC(S(=O)(=O)c2cc(C(=O)Nc3ccc(F)c(F)c3)ccc2Cl)C1` (stereo partly drawn) [Example 234], the EC50 was greater than 200 nM.

As for `O=C(Nc1ccc(F)c(F)c1)c1ccc(Cl)c(S(=O)(=O)[C@H]2CC3CCC(C2)[C@]3(O)C(O)c2ccccc2)c1` (stereo partly drawn) [Example 283], the 50% effective concentration (EC50) lay in the range of 100 to 200 nM.

As for `Nc1cc(NC(=O)c2ccc(Cl)c(S(=O)(=O)[C@H]3CC4CCC(C3)[C@]4(O)C(O)c3ncc[nH]3)c2)ccc1F` (stereo partly drawn) [Example 287], the EC50 was greater than 200 nM.

As for `O=C(Nc1ccc(F)c(F)c1)c1ccc(Cl)c(S(=O)(=O)CC2CCC(F)CC2)c1` (stereo not drawn) [Example 226], the EC50 was greater than 200 nM.

As to `C[C@@H](O)[C@H](O)[C@]1(O)C2CCC1C[C@@H](S(=O)(=O)c1cc(C(=O)Nc3cc(F)c(F)c(F)c3)ccc1Cl)C2` (single isomer, unassigned) [Example 109], the EC50 is less than 104 nM.

Regarding `COC(=O)N[C@@H](C)C(=O)NC[C@]1(O)C2CCC1C[C@@H](S(=O)(=O)c1cc(C(=O)Nc3ccc(F)c(F)c3)ccc1Cl)C2` [Example 159], the EC50 is less than 104 nM.

Take `O=C1CC[C@H](C(=O)NC[C@@]2(O)C3CC[C@H]2C[C@H](S(=O)(=O)c2cc(C(=O)Nc4cc(F)c(F)c(F)c4)ccc2Cl)C3)N1` [Example 128]: the EC50 was greater than 200 nM.

Consider `COC(=O)N[C@@H](CCC(N)=O)C(=O)NC[C@]1(O)C2CCC1C[C@@H](S(=O)(=O)c1cc(C(=O)Nc3cc(F)c(F)c(F)c3)ccc1Cl)C2` [Example 84], for which the EC50 was greater than 200 nM.

For the compound `O=C(Nc1ccc(F)c(F)c1)c1ccc(Cl)c(S(=O)(=O)[C@H]2CC3CCC(C2)[C@]3(O)C(O)Cc2ncc[nH]2)c1` (stereo partly drawn) [Example 316], the EC50 is greater than 200 nM.

As to `C[C@H](O)[C@H](O)[C@]1(O)C2CCC1C[C@@H](S(=O)(=O)c1cc(C(=O)Nc3cc(F)c(F)c(F)c3)ccc1Cl)C2` (single isomer, unassigned) [Example 108], the EC50 was less than 104 nM.

As for `CC(O)C(O)CNC(=O)[C@]1(O)C2CCC1C[C@@H](S(=O)(=O)c1cc(C(=O)Nc3cc(F)c(F)c(F)c3)ccc1Cl)C2` (mixture of isomers) [Example 38], the EC50 is greater than 200 nM.

With `C[C@]1(O)C2CCC1C[C@@H](S(=O)(=O)c1cc(C(=O)Nc3ccc(C#N)c(F)c3)ccc1Cl)C2` [Example 45], the EC50 is greater than 200 nM.

Regarding `CN1C2CCC1CC(S(=O)(=O)c1cc(C(=O)Nc3cc(F)c(F)c(F)c3)ccc1Cl)C2` (stereo not drawn) [Example 145], the EC50 was greater than 200 nM.

`Cc1ccnc([C@H](O)[C@@]2(O)C3CC[C@H]2C[C@H](S(=O)(=O)c2cc(C(=O)Nc4ccc(F)c(F)c4)ccc2Cl)C3)c1` [Example 296a]: the EC50 was less than 104 nM.

On to `O=C(Nc1cc(F)c(F)c(F)c1)c1ccc(Cl)c(S(=O)(=O)C2CC3CCC(C2)N3C2CCCC2)c1` (stereo not drawn) [Example 146], for which the EC50 was greater than 200 nM.

On to `C[C@]1(O)C2CCC1C[C@@H](S(=O)(=O)c1cc(C(=O)Nc3ccc(F)c(CO)c3)ccc1Cl)C2` [Example 166], for which the EC50 was less than 104 nM.

Turning to `CC(C)(C)OC(=O)N1CC[C@H](O)[C@H]1C(=O)NC[C@@]1(O)C2CC[C@H]1C[C@H](S(=O)(=O)c1cc(C(=O)Nc3cc(F)c(F)c(F)c3)ccc1Cl)C2` [Example 77], the EC50 was greater than 200 nM.

Consider `O=C(Nc1cc(F)c(F)c(F)c1)c1ccc(Cl)c(S(=O)(=O)[C@@H]2CC3CC[C@@H](C2)[C@@]3(O)CNC(=O)[C@@H]2C[C@@H](O)[C@@H](O)C2)c1` [Example 24], for which the EC50 was greater than 200 nM.

Consider `O=C(CCCO)NC[C@]1(O)C2CCC1C[C@@H](S(=O)(=O)c1cc(C(=O)Nc3cc(F)c(F)c(F)c3)ccc1Cl)C2` [Example 2], for which the EC50 is 100 to 200 nM.

As for `NS(=O)(=O)NC[C@]1(O)C2CCC1C[C@@H](S(=O)(=O)c1cc(C(=O)Nc3cc(F)c(F)c(F)c3)ccc1Cl)C2` [Example 156], the EC50 was less than 104 nM.

In the case of `CC(C)(O)C(O)CNC(=O)[C@@]1(O)C2CC[C@H]1C[C@H](S(=O)(=O)c1cc(C(=O)Nc3cc(F)c(F)c(F)c3)ccc1Cl)C2` (stereo partly drawn) [Example 148], the EC50 was 100 to 200 nM.

As to `O=C1N[C@@H](C(=O)NC[C@]2(O)C3CCC2C[C@@H](S(=O)(=O)c2cc(C(=O)Nc4cc(F)c(F)c(F)c4)ccc2Cl)C3)CO1` [Example 95], the EC50 is greater than 200 nM.

Consider `CC(=O)C[C@]1(O)CC[C@@H](CS(=O)(=O)c2cc(C(=O)Nc3ccc(F)c(F)c3)ccc2Cl)CC1` [Example 223], for which the EC50 fell in the range of 100 to 200 nM.

Regarding `O=C(Nc1ccc(F)c(F)c1)c1ccc(Cl)c(S(=O)(=O)[C@H]2CC3CCC(C2)[C@]3(O)C(O)C(O)CN2CCOC2=O)c1` (stereo partly drawn) [Example 313], the EC50 was less than 104 nM.

For `O=C(Nc1cc(F)c(F)c(F)c1)c1ccc(Cl)c(S(=O)(=O)[C@H]2CC3CCC(C2)[C@]3(O)CNS(=O)(=O)CC(O)CO)c1` (stereo partly drawn) [Example 40], the EC50 is greater than 200 nM.

Regarding `C[C@]1(O)C2CCC1C[C@@H](S(=O)(=O)c1cc(C(=O)Nc3ccc(F)c(Br)c3)ccc1Cl)C2` [Example 30], the concentration for a half-maximal effect (EC50) was less than 104 nM.
